In ChEMBL document CHEMBL1137173, “Synthesis of an unusual branched-chain sugar, 5-C-methyl-L-idopyranose for SAR studies of pyranmycins: implication for the future design of aminoglycoside antibiotics” (2004):
Converted amounts (≈) assume the structure as drawn.

Experiments:
Escherichia coli = experiment: Minimum inhibitory concentration required against Escherichia coli; type: functional
Staphylococcus aureus = experiment: Minimum inhibitory concentration required against Staphylococcus aureus; type: functional
Ribosomal RNA A-site = experiment: Binding affinity towards decoding region at A-site of 16s rRNA; type: nucleic-acid assay; set-up: unit not given here
[1] = Escherichia coli, read-out: MIC
[2] = Staphylococcus aureus, read-out: MIC

Compound `C[C@@H]1O[C@@H](O[C@@H]2[C@H](O)[C@H](N)C[C@@H](N)[C@H]2O[C@H]2O[C@@H](CN)[C@@H](O)[C@H](O)[C@@H]2N)[C@@H](O)[C@@H](O)[C@@H]1O.Cl.Cl.Cl.Cl` (stereo in doubt; form 2) has an MIC (Escherichia coli) of 19 µM and an MIC (Staphylococcus aureus) of 13 µM.

`C[C@@H]1O[C@@H](O[C@@H]2[C@H](O)[C@H](N)C[C@@H](N)[C@H]2O[C@H]2O[C@@H](CN)[C@@H](O)[C@H](O)[C@@H]2N)[C@@H](O)[C@@H](O)[C@@H]1O` (stereo in doubt; form 1) gave an Activity (Ribosomal RNA A-site) of -320.

With `NC[C@@H]1O[C@H](O[C@H]2[C@@H](O)[C@H](O[C@@H]3[C@@H](O)[C@H](N)C[C@H](N)[C@H]3O[C@H]3O[C@H](CN)[C@@H](O)[C@H](O)[C@H]3N)O[C@@H]2CO)[C@H](N)[C@@H](O)[C@@H]1O` [FRAMYCETIN] the Activity (Ribosomal RNA A-site) was -474, the MIC (Escherichia coli; [1]) was 2 µM (≈ 1.23 µg/mL) and the MIC (Staphylococcus aureus; [2]) was 3 µM (≈ 1.84 µg/mL).

`C[C@]1(CO)O[C@@H](O[C@@H]2[C@H](O)[C@H](N)C[C@@H](N)[C@H]2O[C@H]2O[C@@H](CN)[C@@H](O)[C@H](O)[C@@H]2N)[C@@H](O)[C@@H](O)[C@@H]1O` was tested, and the Activity (Ribosomal RNA A-site) was -318, the MIC (Escherichia coli; [1]) was 87 µM (≈ 43.4 µg/mL) and the MIC (Staphylococcus aureus; [2]) was 27 µM (≈ 13.5 µg/mL).

Compound `C[C@@H]1O[C@@H](O[C@@H]2[C@H](O)[C@H](N)C[C@@H](N)[C@H]2O[C@H]2O[C@@H](CN)[C@@H](O)[C@H](O)[C@@H]2N)[C@@H](O)[C@@H](O)[C@@H]1O.Cl.Cl.Cl.Cl` (stereo in doubt; form 1) has an MIC (Escherichia coli) of 91 µM and an MIC (Staphylococcus aureus; [2]) of 15 µM.

With `NC[C@@H]1O[C@H](O[C@H]2[C@H](O[C@@H]3O[C@H](CO)[C@@H](O)[C@H](O)[C@@H]3O)[C@H](O)[C@H](N)C[C@H]2N)[C@@H](N)[C@@H](O)[C@@H]1O` the Activity (Ribosomal RNA A-site) was -320, the MIC (Escherichia coli; [1]) was 11 µM (≈ 5.33 µg/mL) and the MIC (Staphylococcus aureus; [2]) was 3 µM (≈ 1.45 µg/mL).

Compound `C[C@@H]1O[C@@H](O[C@@H]2[C@H](O)[C@H](N)C[C@@H](N)[C@H]2O[C@H]2O[C@@H](CN)[C@@H](O)[C@H](O)[C@@H]2N)[C@@H](O)[C@@H](O)[C@@H]1O` (stereo in doubt; form 2) has an Activity (Ribosomal RNA A-site) of -314.

`NC[C@@H]1O[C@H](O[C@H]2[C@H](O[C@@H]3O[C@H](CN)[C@@H](O)[C@H](O)[C@@H]3O)[C@H](O)[C@H](N)C[C@H]2N)[C@@H](N)[C@@H](O)[C@@H]1O` was tested, and the Activity (Ribosomal RNA A-site) was -394, the MIC (Escherichia coli; [1]) was 9 µM (≈ 4.35 µg/mL) and the MIC (Staphylococcus aureus; [2]) was 2 µM (≈ 0.967 µg/mL).

With `NC[C@@H]1O[C@H](O[C@H]2[C@H](O[C@@H]3OC(CO)(CO)[C@@H](O)[C@H](O)[C@@H]3O)[C@H](O)[C@H](N)C[C@H]2N)[C@@H](N)[C@@H](O)[C@@H]1O` the Activity (Ribosomal RNA A-site) was -315, the MIC (Escherichia coli; [1]) was 22 µM (≈ 11.3 µg/mL) and the MIC (Staphylococcus aureus; [2]) was 7 µM (≈ 3.6 µg/mL).
